The term Dmax denotes the largest share of the target that was removed. Broadly, the DC50 is the midpoint of the concentration-degradation curve.

Like-named read-outs stand apart in the source and are kept apart here.

This assay has as its target T1, VAV1 (Homo sapiens, UniProt P15498+Q96SW2).
T1 construct: A heterozygous VAV1 C-terminal HiBiT knock-in pool was generated at Monte Rosa Therapeutics from a clonal Jurkat cell; endogenous in cells; host or cells: Jurkat clone stably expressing LgBiT, homozygous GSPT1-G575N; heterozygous VAV1-HiBiT knock-in pool
Kind of assay: VAV1 degradation activity, VAV1-HiBiT knock-in Jurkat luminescence assay (Example A, Table 1). Conditions: VAV1-HiBiT knock-in Jurkat cells, luminescence read at 6 and 24 hours; for Dmax: Jurkat. The format is cell-based. As to the method:
Cells were plated at 10,000 cells per well using Multiflo (BioTek) or Multi Drop Combi (Thermo Fisher) in 384-well white solid bottom plates (Corning, 3570BC) in 25 ul volume in RPMI 1640 media (Thermo Fischer, 22400105) containing 10% FBS (Corning, 35-075-CV), 1% Penicillin/Streptomycin (ThermoFisher Scientific, 15140-122), and 1% Endurazine (Nano-Glo Endurazine Live Cell Substrate (Promega, N2571)). Cells were incubated for ˜16 hours at 37° C., 5% CO2. 25 nL of a compound at 10 μM were dosed into the plate using an Echo® 650 liquid handler (Labcyte). Cells were incubated at 37° C., 5% CO2 and signal was read at 6 and 24 hours after compound addition on a Pherastar FSX using “LUM plus” optic module.
Analysis was performed in Scinamic (Scinamic, Cambridge, MA). Luminescence response (R) was calculated by the formula: response=100*(S−N)/(P−N) where S is the signal of the well, N and P the mean negative and positive control values respectively of the same plate. The luminescence response was then fitted in Scinamic using a 3-parameter agonist logistic fit (hillslope=1, EC50>0, top/bottom unconstrained).

Where [1] appears, read: read-out: VAV1 DC50 (nM), class.

As to `Cn1ccc(COc2ccc(-c3cc(C#N)cc(C4CCC(=O)NC4=O)c3Cl)cc2)n1` (centres unmarked) [Compound 157], the Dmax is 20% (read-out: VAV1 Dmax %) and under 60% (read-out: VAV1 Dmax %, class). Besides, the DC50 is, setting by setting: (read-out: VAV1 DC50) at least 10000 nM; under setting [1], over 1000 nM.

On to `Cn1ccc(=O)n1Cc1ccc(-c2cccc(C3CCC(=O)NC3=O)c2Cl)cc1` (centres unmarked) [Compound 158, 3-(2-chloro-4′-((2-methyl-5-oxo-2,5-dihydro-1H-pyrazol-1-yl)methyl)-[1,1′-biphenyl]-3-yl)piperidine-2,6-dione], for which the maximal degradation (Dmax) was 81.7% (read-out: VAV1 Dmax %) and 60 to 90% (read-out: VAV1 Dmax %, class). Further, the half-maximal degradation concentration (DC50) is, setting by setting: (read-out: VAV1 DC50) 74.3 nM; under setting [1], at most 100 nM.

In the case of `O=C1CCC(c2cccc(-c3ccc(Cc4cnccn4)cc3)c2Cl)C(=O)N1` (centres unmarked) [Compound 159, 3-(2-chloro-4′-(pyrazin-2-ylmethyl)-[1,1′-biphenyl]-3-yl)piperidine-2,6-dione], the Dmax (read-out: VAV1 Dmax %) was 96% and the Dmax (read-out: VAV1 Dmax %, class) is over 90%. Besides, the 50% degradation concentration (DC50) is 14.8 nM (read-out: VAV1 DC50) and at most 100 nM under setting [1].

Regarding `Cn1ccc(OCc2ccc(-c3cccc(C4CCC(=O)NC4=O)c3Cl)cc2)n1` (centres unmarked) [Compound 160, 3-(2-chloro-4′-(((1-methyl-1H-pyrazol-3-yl)oxy)methyl)-[1,1′-biphenyl]-3-yl)piperidine-2,6-dione], the greatest degradation seen (Dmax) is, setting by setting: (read-out: VAV1 Dmax %) 94.5%; (read-out: VAV1 Dmax %, class) over 90%. The DC50 runs as follows: (read-out: VAV1 DC50) 18.5 nM; under setting [1], at most 100 nM.

Take `O=C1CCC(c2cccc(-c3ccc(N4CCCCC4=O)cc3)c2Cl)C(=O)N1` (centres unmarked) [Compound 161, 3-(2-chloro-4′-(2-oxopiperidin-1-yl)-[1,1′-biphenyl]-3-yl)piperidine-2,6-dione]: the Dmax (read-out: VAV1 Dmax %) is 95.4% and the Dmax (read-out: VAV1 Dmax %, class) was over 90%. In addition, the half-maximal degradation concentration (DC50) runs as follows: (read-out: VAV1 DC50) 10.1 nM; under setting [1], at most 100 nM.

Consider `O=C1CCC(c2cccc(-c3ccc(N4CCCC4=O)cc3)c2Cl)C(=O)N1` (centres unmarked) [Compound 162, 3-(2-chloro-4′-(2-oxopyrrolidin-1-yl)-[1,1′-biphenyl]-3-yl)piperidine-2,6-dione], for which the Dmax was 73.1% (read-out: VAV1 Dmax %) and 60 to 90% (read-out: VAV1 Dmax %, class). Besides, the half-maximal degradation concentration (DC50) is 283 nM (read-out: VAV1 DC50) and 100 to 1000 nM under setting [1].

As to `O=C1CCC(c2cccc(-c3ccc(N4CCC4=O)cc3)c2Cl)C(=O)N1` (centres unmarked) [Compound 163, 3-(2-chloro-4′-(2-oxoazetidin-1-yl)-[1,1′-biphenyl]-3-yl)piperidine-2,6-dione], the Dmax was 44.7% (read-out: VAV1 Dmax %) and under 60% (read-out: VAV1 Dmax %, class). Moreover, the 50% degradation concentration (DC50) (read-out: VAV1 DC50) was at least 10000 nM and the DC50 under setting [1] was over 1000 nM.

With `Cn1ccc(-c2ccc(-c3cccc(C4CCC(=O)NC4=O)c3Cl)cc2)n1` (centres unmarked) [Compound 164, 3-(2-chloro-4′-(1-methyl-1H-pyrazol-3-yl)-[1,1′-biphenyl]-3-yl)piperidine-2,6-dione], the Dmax is, setting by setting: (read-out: VAV1 Dmax %) 71.9%; (read-out: VAV1 Dmax %, class) 60 to 90%. Also, the DC50 is 542 nM (read-out: VAV1 DC50) and 100 to 1000 nM under setting [1].

Regarding `CC(Oc1ccccn1)c1ccc(-c2cccc(C3CCC(=O)NC3=O)c2Cl)cc1` (centres unmarked) [Compound 165, 3-(2-chloro-4′-(1-(pyridin-2-yloxy)ethyl)-[1,1′-biphenyl]-3-yl)piperidine-2,6-dione], the Dmax (read-out: VAV1 Dmax %) came to 90.2% and the maximal degradation (Dmax) (read-out: VAV1 Dmax %, class) is over 90%. The half-maximal degradation concentration (DC50) (read-out: VAV1 DC50) was 47.7 nM and the 50% degradation concentration (DC50) under setting [1] was at most 100 nM.

As for `O=C1CCC(c2cccc(-c3ccc(N4CCC(Cn5ccccc5=O)CC4)cc3)c2Cl)C(=O)N1` (centres unmarked) [Compound 166, 3-(2-chloro-4′-(4-((2-oxopyridin-1(2H)-yl)methyl)piperidin-1-yl)-[1,1′-biphenyl]-3-yl)piperidine-2,6-dione], the maximal degradation (Dmax) (read-out: VAV1 Dmax %) is 61.5% and the Dmax (read-out: VAV1 Dmax %, class) lay within 60 to 90%. In addition, the DC50 (read-out: VAV1 DC50) stood at 517 nM and the DC50 under setting [1] fell in the range of 100 to 1000 nM.

In the case of `O=C1CCC(c2cccc(-c3ccc(OCc4c[nH]cn4)cc3)c2Cl)C(=O)N1` (centres unmarked) [Compound 167, 3-(4′-((1H-imidazol-4-yl)methoxy)-2-chloro-[1,1′-biphenyl]-3-yl)piperidine-2,6-dione], the Dmax runs as follows: (read-out: VAV1 Dmax %) 87.3%; (read-out: VAV1 Dmax %, class) 60 to 90%. For the same molecule, the DC50 is, setting by setting: (read-out: VAV1 DC50) 38.5 nM; under setting [1], at most 100 nM.

As for `O=C1CCC(c2cccc(-c3ccc(CN4CCCCC4=O)cc3)c2Cl)C(=O)N1` (centres unmarked) [Compound 168, 3-(2-chloro-4′-((2-oxopiperidin-1-yl)methyl)-[1,1′-biphenyl]-3-yl)piperidine-2,6-dione], the Dmax is 91.5% (read-out: VAV1 Dmax %) and over 90% (read-out: VAV1 Dmax %, class). For the same molecule, the DC50 (read-out: VAV1 DC50) came to 18.8 nM and the DC50 under setting [1] is at most 100 nM.

Regarding `O=C1CCC(c2cccc(-c3ccc(Cc4ccccn4)cc3)c2Cl)C(=O)N1` (centres unmarked) [Compound 169, 3-(2-chloro-4′-(pyridin-2-ylmethyl)-[1,1′-biphenyl]-3-yl)piperidine-2,6-dione], the Dmax is 98% (read-out: VAV1 Dmax %) and over 90% (read-out: VAV1 Dmax %, class). Further, the half-maximal degradation concentration (DC50) is 5.59 nM (read-out: VAV1 DC50) and at most 100 nM under setting [1].

Turning to `O=C1CCC(c2cccc(-c3ccc(Cn4ccc(F)cc4=O)cc3)c2Cl)C(=O)N1` (centres unmarked) [Compound 170, 3-(2-chloro-4′-((4-fluoro-2-oxopyridin-1(2H)-yl)methyl)-[1,1′-biphenyl]-3-yl)piperidine-2,6-dione], the maximal degradation (Dmax) by setting is: (read-out: VAV1 Dmax %) 94.2%; (read-out: VAV1 Dmax %, class) over 90%. In addition, the DC50 (read-out: VAV1 DC50) came out at 69.7 nM and the DC50 under setting [1] is at most 100 nM.

In the case of `O=C1CCC(c2cccc(-c3ccc(Cn4ccc(C(F)(F)F)cc4=O)cc3)c2Cl)C(=O)N1` (centres unmarked) [Compound 171, 3-(2-chloro-4′-((2-oxo-4-(trifluoromethyl)pyridin-1(2H)-yl)methyl)-[1,1′-biphenyl]-3-yl)piperidine-2,6-dione], the greatest degradation seen (Dmax) was 94.9% (read-out: VAV1 Dmax %) and over 90% (read-out: VAV1 Dmax %, class). Besides, the 50% degradation concentration (DC50) is, setting by setting: (read-out: VAV1 DC50) 93.8 nM; under setting [1], at most 100 nM.

As for `C#Cc1ccc(C2CCC(=O)NC2=O)c(Cl)c1-c1ccc(OCc2ccn(C)n2)cc1` (centres unmarked) [Compound 172, 3-(2-chloro-6-ethynyl-4′-((1-methyl-1H-pyrazol-3-yl)methoxy)-[1,1′-biphenyl]-3-yl)piperidine-2,6-dione], the maximal degradation (Dmax) was 24.7% (read-out: VAV1 Dmax %) and under 60% (read-out: VAV1 Dmax %, class). Also, the DC50 (read-out: VAV1 DC50) is at least 10000 nM and the DC50 under setting [1] was over 1000 nM.

For the molecule `CC(Oc1ccc(-c2cccc(C3CCC(=O)NC3=O)c2Cl)cc1)c1ccn(C)n1` (centres unmarked) [Compound 173, 3-(2-chloro-4′-(1-(1-methyl-1H-pyrazol-3-yl)ethoxy)-[1,1′-biphenyl]-3-yl)piperidine-2,6-dione], the greatest degradation seen (Dmax) reads like this: (read-out: VAV1 Dmax %) 88.1%; (read-out: VAV1 Dmax %, class) 60 to 90%. The DC50 (read-out: VAV1 DC50) was determined as 40.2 nM and the half-maximal degradation concentration (DC50) under setting [1] was at most 100 nM.

Consider `CC(c1ccc(-c2cccc(C3CCC(=O)NC3=O)c2Cl)cc1)n1ccccc1=O` (centres unmarked) [Compound 174, 3-(2-chloro-4′-(1-(2-oxopyridin-1(2H)-yl)ethyl)-[1,1′-biphenyl]-3-yl)piperidine-2,6-dione], for which the Dmax is 92.2% (read-out: VAV1 Dmax %) and over 90% (read-out: VAV1 Dmax %, class). Further, the DC50 runs as follows: (read-out: VAV1 DC50) 27.4 nM; under setting [1], at most 100 nM.

In the case of `COc1ccn(Cc2ccc(-c3cccc(C4CCC(=O)NC4=O)c3Cl)cc2)c(=O)c1` (centres unmarked) [Compound 175, 3-[2-chloro-3-[4-[(4-methoxy-2-oxo-1-pyridyl)methyl]phenyl]phenyl]piperidine-2,6-dione], the Dmax runs as follows: (read-out: VAV1 Dmax %) 87.1%; (read-out: VAV1 Dmax %, class) 60 to 90%. Moreover, the half-maximal degradation concentration (DC50) is 31.6 nM (read-out: VAV1 DC50) and at most 100 nM under setting [1].

With `Cn1ccc(Cc2ccc(-c3cccc(C4CCC(=O)NC4=O)c3Cl)cc2)n1` (centres unmarked) [Compound 176, 3-(2-chloro-4′-((1-methyl-1H-pyrazol-3-yl)methyl)-[1,1′-biphenyl]-3-yl)piperidine-2,6-dione], the maximal degradation (Dmax) reads like this: (read-out: VAV1 Dmax %) 98%; (read-out: VAV1 Dmax %, class) over 90%. Further, the DC50 (read-out: VAV1 DC50) is 4.41 nM and the 50% degradation concentration (DC50) under setting [1] is at most 100 nM.

As to `Cn1ccc(COc2ccc(-c3cccc(C4CCC(=O)NC4=O)c3Cl)c(Cl)c2)n1` (centres unmarked) [Compound 177, 3-(2,2′-dichloro-4′-((1-methyl-1H-pyrazol-3-yl)methoxy)-[1,1′-biphenyl]-3-yl)piperidine-2,6-dione], the Dmax (read-out: VAV1 Dmax %) came out at 29.2% and the Dmax (read-out: VAV1 Dmax %, class) was under 60%. The half-maximal degradation concentration (DC50) is, setting by setting: (read-out: VAV1 DC50) at least 10000 nM; under setting [1], over 1000 nM.

Regarding `O=C1CCC(c2cccc(-c3ccc(CCCn4ccccc4=O)cc3)c2Cl)C(=O)N1` (centres unmarked) [Compound 178, 3-(2-chloro-4′-(3-(2-oxopyridin-1(2H)-yl)propyl)-[1,1′-biphenyl]-3-yl)piperidine-2,6-dione], the maximal degradation (Dmax) runs as follows: (read-out: VAV1 Dmax %) 81.1%; (read-out: VAV1 Dmax %, class) 60 to 90%. The 50% degradation concentration (DC50) reads like this: (read-out: VAV1 DC50) 239 nM; under setting [1], 100 to 1000 nM.

Regarding `Cn1ccc(COc2ccc(-c3c(C#N)ccc(C4CCC(=O)NC4=O)c3Cl)cc2)n1` (centres unmarked) [Compound 179], the greatest degradation seen (Dmax) by setting is: (read-out: VAV1 Dmax %) 32.8%; (read-out: VAV1 Dmax %, class) under 60%. Further, the DC50 is, setting by setting: (read-out: VAV1 DC50) at least 10000 nM; under setting [1], over 1000 nM.

Values taken from US12257247B2 (Monte Rosa Therapeutics AG, priority 2023, dated 2025).
